Test results from patent US7138421B2, “Anti-androgenic pyrrolidines with tumor-inhibiting action” (Schring Aktiengesellschaft, priority 2003, dated 2006).

System: LNCaP cells
Assay: Inhibition of the proliferation of LNCaP cells (crystal violet assay)
Type: cell-based, human
Details: for inhibition at 1 µM / IC50: Homo sapiens, LNCaP; for inhibition at 1 µM: 1 μM test substance, compared to cell growth in the presence of 0.1 nmol of R1881, read-out: % Inhibition at 1 μM; for IC50: in the presence of 0.1 nmol of R1881, 7 to 8 days, read-out: IC50 inhibition of the proliferation of LNCaP cells; for antiproliferative action (in words): LNCaP cells
Experimental: For the proliferation assay, 6000 LNCaP cells/well (Horoszewicz et al. Cancer Res. 1983, 43, 1809–1817) in a microtiter plate (96-well) in 50 μl of RPMI1640 medium are grown with 5% CCS and cultivated as in Model 1. After 24 hours, the cells receive 50 μl of 2×-concentrated test substance, diluted in culture medium. The solvent concentration is 0.5% DMSO. After 4 days, the cells receive another 100 μl of 1×-concentrated test substance, diluted in culture medium. After 7 to 8 days, the proliferation rate of the cells is determined by means of crystal violet assay (Gillies et al. Anal. Biochem. 1986, 159, 109–113). To determine the antagonism, the substance treatment is performed in the presence of […] of R1881 (1:1000 dilution of ethanolic solution). Control cells receive only 0.5% DMSO. For the agonism, the cells are treated only with test substance (without R1881).

Compound	inhibition at 1 µM	IC50	antiproliferative action (in words)
CC1(C)C(=O)N(c2ccc(C#N)c(C(F)(F)F)c2)C(=S)N1CCCCN1CCCC1 [Comparison 1, 4-[4,4-Dimethyl-5-oxo-3-[4-(pyrrolidin-1-yl)butyl]-2-thioxoimidazolidin-1-yl]-2-(trifluoromethyl)benzonitrile, reference compound]	20%	4.3 µM	considerably reduced antiproliferative activity
CC1(C)C(=O)N(c2ccc(C#N)c(C(F)(F)F)c2)C(=S)N1CCCCCN1CCCC1 [Comparison 2, 4-[4,4-Dimethyl-5-oxo-3-[5-(pyrrolidin-1-yl)pentyl]-2-thioxoimidazolidin-1-yl]-2-(trifluoromethyl)benzonitrile, reference compound]	38%	2.1 µM	considerably reduced antiproliferative activity
CC1(C)C(=O)N(c2ccc(C#N)c(C(F)(F)F)c2)C(=S)N1CCCCCCCN1CCCC1 [Example 4, 4-[4,4-Dimethyl-5-oxo-3-[7-(pyrrolidin-1-yl)heptyl]-2-thioxoimidazolidin-1-yl]-2-(trifluoromethyl)benzonitrile]	98%	0.045 µM	–
CC1(C)C(=O)N(c2ccc(C#N)c(C(F)(F)F)c2)C(=S)N1CCCCCCN1CCC[C@@H]1CO [Example 6, 4-[3-[6-[(2R)-2-(Hydroxymethyl)pyrrolidin-1-yl]hexyl]-4,4-dimethyl-5-oxo-2-thioxoimidazolidin-1-yl]-2-(trifluoromethyl)benzonitrile]	102%	0.055 µM	–
CC1(C)C(=O)N(c2ccc(C#N)c(C(F)(F)F)c2)C(=S)N1CCCCCCCN1CCC[C@@H]1CO [Example 8, 4-[3-[7-[(2R)-2-(Hydroxymethyl)pyrrolidin-1-yl]heptyl]-4,4-dimethyl-5-oxo-2-thioxoimidazolidin-1-yl]-2-(trifluoromethyl)benzonitrile]	101%	0.011 µM	–
CC1(C)C(=O)N(c2ccc(C#N)c(C(F)(F)F)c2)C(=S)N1CCCCCCCCCN1CCC[C@@H]1CO [Example 12, 4-[3-[9-[(2R)-2-(Hydroxymethyl)pyrrolidin-1-yl]nonyl]-4,4-dimethyl-5-oxo-2-thioxoimidazolidin-1-yl]-2-(trifluoromethyl)benzonitrile]	93%	0.024 µM	–
CC1(C)C(=O)N(c2ccc(C#N)c(C(F)(F)F)c2)C(=S)N1CCCCCCCCCN1CCC[C@H]1CO [Example 13, 4-[3-[9-[(2S)-2-(Hydroxymethyl)pyrrolidin-1-yl]nonyl]-4,4-dimethyl-5-oxo-2-thioxoimidazolidin-1-yl]-2-(trifluoromethyl)benzonitrile]	88%	0.016 µM	–
COC[C@H]1CCCN1CCCCCCCN1C(=S)N(c2ccc(C#N)c(C(F)(F)F)c2)C(=O)C1(C)C [Example 16, 4-[3-[7-[(2R)-2-(Methoxymethyl)pyrrolidin-1-yl]heptyl]-4,4-dimethyl-5-oxo-2-thioxoimidazolidin-1-yl]-2-(trifluoromethyl)benzonitrile]	98%	0.018 µM	–
COC[C@@H]1CCCN1CCCCCCCN1C(=S)N(c2ccc(C#N)c(C(F)(F)F)c2)C(=O)C1(C)C [Example 17, 4-[3-[7-[(2S)-2-(Methoxymethyl)pyrrolidin-1-yl]heptyl]-4,4-dimethyl-5-oxo-2-thioxoimidazolidin-1-yl]-2-(trifluoromethyl)benzonitrile]	99%	0.032 µM	–
COC[C@H]1CCCN1CCCCCCCCN1C(=S)N(c2ccc(C#N)c(C(F)(F)F)c2)C(=O)C1(C)C [Example 18, 4-[3-[8-[(2R)-2-(Methoxymethyl)pyrrolidin-1-yl]octyl]-4,4-dimethyl-5-oxo-2-thioxoimidazolidin-1-yl]-2-(trifluoromethyl)benzonitrile]	103%	0.011 µM	–
COC[C@@H]1CCCN1CCCCCCCCN1C(=S)N(c2ccc(C#N)c(C(F)(F)F)c2)C(=O)C1(C)C [Example 19, 4-[3-[8-[(2S)-2-(Methoxymethyl)pyrrolidin-1-yl]octyl]-4,4-dimethyl-5-oxo-2-thioxoimidazolidin-1-yl]-2-(trifluoromethyl)benzonitrile]	97%	0.025 µM	–
COC[C@H]1CCCN1CCCCCCCCCN1C(=S)N(c2ccc(C#N)c(C(F)(F)F)c2)C(=O)C1(C)C [Example 20, 4-[3-[9-[(2R)-2-(Methoxymethyl)pyrrolidin-1-yl]nonyl]-4,4-dimethyl-5-oxo-2-thioxoimidazolidin-1-yl]-2-(trifluoromethyl)benzonitrile]	101%	0.029 µM	–
COC[C@@H]1CCCN1CCCCCCCCCN1C(=S)N(c2ccc(C#N)c(C(F)(F)F)c2)C(=O)C1(C)C [Example 21, 4-[3-[9-[(2S)-2-(Methoxymethyl)pyrrolidin-1-yl]nonyl]-4,4-dimethyl-5-oxo-2-thioxoimidazolidin-1-yl]-2-(trifluoromethyl)benzonitrile]	94%	0.047 µM	–
CC1(C)C(=O)N(c2ccc(C#N)c(C(F)(F)F)c2)C(=S)N1CCCCCCCN1C2CCC1CC(O)C2 (stereo not shown) [Example 23, 4-[3-[7-(3-Hydroxy-8-azabicyclo[3.2.1]oct-8-yl)heptyl]-4,4-dimethyl-5-oxo-2-thioxoimidazolidin-1-yl]-2-(trifluoromethyl)benzonitrile]	79%	0.048 µM	–
CC1(C)C(=O)N(c2ccc(C#N)c(C(F)(F)F)c2)C(=S)N1CCCCCCCCN1C2CCC1CC(O)C2 (stereo not shown) [Example 24, 4-[3-[8-(3-Hydroxy-8-azabicyclo[3.2.1]oct-8-yl)octyl]-4,4-dimethyl-5-oxo-2-thioxoimidazolidin-1-yl]-2-(trifluoromethyl)benzonitrile]	102%	0.013 µM	–
CC1(C)C(=O)N(c2ccc(C#N)c(C(F)(F)F)c2)C(=S)N1CCCCCCCN1CC[C@@H](O)C1 [Example 27, 4-[3-[7-[(R)-3-Hydroxypyrrolidin-1-yl]heptyl]-4,4-dimethyl-5-oxo-2-thioxoimidazolidin-1-yl]-2-(trifluoromethyl)benzonitrile]	95%	0.057 µM	–
CC1(C)C(=O)N(c2ccc(C#N)c(C(F)(F)F)c2)C(=S)N1CCCCCCCCN1CC[C@@H](O)C1 [Example 28, 4-[3-[8-[(R)-3-Hydroxypyrrolidin-1-yl]octyl]-4,4-dimethyl-5-oxo-2-thioxoimidazolidin-1-yl]-2-(trifluoromethyl)benzonitrile]	102%	0.011 µM	–
CC1(C)C(=O)N(c2ccc(C#N)c(C(F)(F)F)c2)C(=S)N1CCCCCCCCCN1CC[C@@H](O)C1 [Example 29, 4-[3-[9-[(R)-3-Hydroxypyrrolidin-1-yl]nonyl]-4,4-dimethyl-5-oxo-2-thioxoimidazolidin-1-yl]-2-(trifluoromethyl)benzonitrile]	99%	0.035 µM	–
CC1(C)C(=O)N(c2ccc(C#N)c(C(F)(F)F)c2)C(=S)N1CCCCCCCN1CC[C@H](O)C1 [Example 31, 4-[3-[7-[(S)-3-Hydroxypyrrolidin-1-yl]heptyl]-4,4-dimethyl-5-oxo-2-thioxoimidazolidin-1-yl]-2-(trifluoromethyl)benzonitrile]	104%	0.02 µM	–
CC1(C)C(=O)N(c2ccc(C#N)c(C(F)(F)F)c2)C(=S)N1CCCCCCCCN1CC[C@H](O)C1 [Example 32, 4-[3-[8-[(S)-3-Hydroxypyrrolidin-1-yl]octyl]-4,4-dimethyl-5-oxo-2-thioxoimidazolidin-1-yl]-2-(trifluoromethyl)benzonitrile]	101%	0.012 µM	–
CC1CCCN1CCCCCCCN1C(=S)N(c2ccc(C#N)c(C(F)(F)F)c2)C(=O)C1(C)C (stereo not shown) [Example 35, 4-[4,4-Dimethyl-3-[7-(2-methylpyrrolidin-1-yl)heptyl]-5-oxo-2-thioxoimidazolidin-1-yl]-2-(trifluoromethyl)benzonitrile]	92%	0.03 µM	–
CC1CCCN1CCCCCCCCN1C(=S)N(c2ccc(C#N)c(C(F)(F)F)c2)C(=O)C1(C)C (stereo not shown) [Example 36, 4-[4,4-Dimethyl-3-[8-(2-methylpyrrolidin-1-yl)octyl]-5-oxo-2-thioxoimidazolidin-1-yl]-2-(trifluoromethyl)benzonitrile]	96%	0.015 µM	–
CC(C)(O)[C@@H]1CCCN1CCCCCCCN1C(=S)N(c2ccc(C#N)c(C(F)(F)F)c2)C(=O)C1(C)C [Example 39, 4-[3-[7-[(2S)-2-(1-Hydroxy-1-methylethyl)pyrrolidin-1-yl]heptyl]-4,4-dimethyl-5-oxo-2-thioxoimidazolidin-1-yl]-2-(trifluoromethyl)benzonitrile]	108%	0.041 µM	–
CC(C)(O)[C@@H]1CCCN1CCCCCCCCCN1C(=S)N(c2ccc(C#N)c(C(F)(F)F)c2)C(=O)C1(C)C [Example 41, 4-[3-[9-[(2S)-2-(1-Hydroxy-1-methylethyl)pyrrolidin-1-yl]nonyl]-4,4-dimethyl-5-oxo-2-thioxoimidazolidin-1-yl]-2-(trifluoromethyl)benzonitrile]	89%	0.048 µM	–
CC(C)(O)[C@H]1CCCN1CCCCCCCN1C(=S)N(c2ccc(C#N)c(C(F)(F)F)c2)C(=O)C1(C)C [Example 43, 4-[3-[7-[(2R)-2-(1-Hydroxy-1-methylethyl)pyrrolidin-1-yl]heptyl]-4,4-dimethyl-5-oxo-2-thioxoimidazolidin-1-yl]-2-(trifluoromethyl)benzonitrile]	113%	0.026 µM	–
